According to patent US20230330122A1, “PHARMACOLOGICAL TREATMENT OF AUTISM SPECTRUM DISORDER” (priority 2022, published 2023):

What was measured:
[1] = tested on: SHANK3 autism mouse model; experiment: Compulsive behavior in SHANK3 autism mouse model; type: in vivo
Description: FIGS. 5 and 6 present data collected by experiments using a SH3 And Multiple Ankyrin Repeat Domains 3 (SHANK3) autism mouse model. SHANK3 was the first to be associated with autism which was used by Joao Peca et al. (2011) to create the mouse model currently in use. […] The SHANK family of proteins has been strongly implicated as a contributing factor in autism in certain individuals and sits at the core of the alleged autistic pathway. The SHANK proteins lie at the heart of this synaptic map of autistic pathology, binding to Metabotropic Glutamate Receptors (mGluRs) indirectly, via the Homer family of adaptor proteins, and to both N-methyl-D-aspartate receptors (NMDARS) and Neuroligins (NLGNs) indirectly, via guanylate kinase-associated protein (GKAP) and Postsynaptic density protein 95 (PSD-95). They also link to the actin cytoskeleton, providing a multivalent scaffold upon which to build the postsynaptic density.
Compulsive behavior was used as a readout to evaluate the effectiveness of autistic symptom amelioration through NMN treatment. […] A baseline was recorded for both groups. The effect of a placebo was evaluated for both groups. NMN was administered to subjects of each group and the results were recorded. The results of treatment with NMN over 1 week were also recorded.

OCD mouse models = settings: 3 different mouse models; cited from earlier work

SMILES	compulsive behavior in seconds observed over a 5-minute period ([1]; SHANK3 autistic group and control group, NMN administered, also NMN over 1 week, FIG. 5)	safety of treatment ([1]; SHANK3 mouse model, NMN treatment)	treating OCD (OCD mouse models)
NC(=O)c1ccc[n+]([C@@H]2O[C@H](COP(=O)([O-])O)[C@@H](O)[C@H]2O)c1 [NMN, nicotinamide mononucleotide]	significantly reducing the exhibition of compulsive behavior	SAFE	
O=C(O)C(Cc1c[nH]c2ccccc12)N1C(=O)c2ccccc2C1=O (stereo not drawn) [RG108]			successful in treating OCD
